Results reported in patent publication US11930814B2, “Pesticidal mixtures comprising cyanosulfoximine compounds” (BASF SE, priority 2007, dated 2024).

Key:
Assay type in all cases: in vivo
[1] = tested on: Mediterranean fruitfly (Ceratitis capitata); test: Test B.4: control of Mediterranean fruitfly, insect diet with eggs in microtiter plates; details: 5 days
Procedure: For evaluating control of Mediterranean fruitfly (Ceratitis capitata) the test unit consisted of well-microtiter plates containing an insect diet and 50-80 C. capitata eggs. The compounds or mixtures were formulated using a solution containing 75 wt % water and 25 wt % DMSO. Different concentrations of formulated compounds or mixtures were sprayed onto the insect diet at 5 μl, using a custom built micro atomizer, at two replications.
(§1) For experimental mixtures in these tests identical volumes of both mixing partners at the desired concentrations respectively, were mixed together.
After application, microtiter plates were incubated at 28±1° C., 80±5% RH for 5 days. Egg and larval mortality was then visually assessed.

[2] = tested on: vetch aphid (Megoura viciae); test: Test B.1: control of vetch aphid on broad bean leaf disks in microtiter plates (contact or systemic); details: 5 days
Procedure: For evaluating control of vetch aphid (Megoura viciae) through contact or systemic means the test unit consisted of microtiter plates containing broad bean leaf disks. The compounds or mixtures were formulated using a solution containing 75 wt % water and 25 wt % DMSO. Different concentrations of formulated compounds or mixtures were sprayed onto the leaf disks at 2.5 μl, using a custom built micro atomizer, at two replications.
as §1
After application, the leaf disks were air-dried and 5-8 adult aphids placed on the leaf disks inside the microtiter plate wells. The aphids were then allowed to suck on the treated leaf disks and incubated at 23±1° C., 50±5% RH (relative humidity) for 5 days. Aphid mortality and fecundity was then visually assessed.

[3] = tested on: boll weevil (Anthonomus grandis); test: Test B.3: control of boll weevil, insect diet with eggs in microtiter plates; details: 5 days
Procedure: For evaluating control of boll weevil (Anthonomus grandis) the test unit consisted of well-microtiter plates containing an insect diet and 20-30 A. grandis eggs.
The compounds or mixtures were formulated using a solution containing 75 wt % water and 25 wt % DMSO. Different concentrations of formulated compounds or mixtures were sprayed onto the insect diet at 20 μl, using a custom built micro atomizer, at two replications.
as §1
After application, microtiter plates were incubated at 23±1° C., 50±5% RH for 5 days. Egg and larval mortality was then visually assessed.

[4] = tested on: green peach aphid (Myzus persicae); test: Test B.2: control of green peach aphid through systemic means, artificial diet under membrane in microtiter plates; details: 3 days
Excerpt: For evaluating control of green peach aphid (Myzus persicae) through systemic means the test unit consisted of microtiter plates containing liquid artificial diet under an artificial membrane.
The compounds or mixtures were formulated using a solution containing 75 wt % water and 25 wt % DMSO. Different concentrations of formulated compounds or mixtures were pipetted into the aphid diet, using a custom built pipetter, at two replications. For experimental mixtures in these tests identical volumes of both mixing partners at the desired concentrations respectively, were mixed together.
After application, 5-8 adult aphids were placed on the artificial membrane inside the microtiter plate wells. The aphids were then allowed to suck on the treated aphid diet and incubated at 23±1° C., 50±5% RH for 3 days. Aphid mortality and fecundity was then visually assessed.

[5] = 200 + 0 ppm (compound II + compound I), compound II alone
[6] = 2 + 0 ppm (compound II + compound I), compound II alone
[7] = 4 + 0 ppm (compound II + compound I), compound II alone
[8] = 0 + 20 ppm (compound II + compound I), compound I alone
[9] = 0 + 0.8 ppm (compound II + compound I), compound I alone
[10] = 0.4 + 0 ppm (compound II + compound I), compound II alone
[11] = 0.08 + 0 ppm (compound II + compound I), compound II alone

With `CC(C)(C)c1ccc(CSc2cnn(C(C)(C)C)c(=O)c2Cl)cc1` [Pyridaben, pyridaben] the “Average Control %” value [1, 5] was 50% and the “Average Control %” value [2, 5] was 50%.

For `O=[N+]([O-])NC1=NCCN1Cc1ccc(Cl)nc1` [Imidacloprid, imidacloprid], the “Average Control %” value [3, 6] was 25% and the “Average Control %” value [1, 7] was 0%.

With `CS(=O)(Cc1ccc(Cl)nc1)=NC#N` (centres unmarked) [Compound C.I.1] the “Average Control %” value [3, 8] was 0%, the “Average Control %” value [4, 8] was 50% and the “Average Control %” value ([1]; 0 + 4 ppm (compound II + compound I), compound I alone) was 0%. The “Average Control %” value [1, 8] was 0% and the “Average Control %” value [2, 9] was 0%.

`CC1(C)C(C=C(Cl)Cl)C1C(=O)OC(C#N)c1cccc(Oc2ccccc2)c1` (stereo not drawn) [Alphacypermethrin, alpha-cypermethrin] was tested, and the “Average Control %” value [1, 10] was 0% and the “Average Control %” value [2, 6] was 0%.

In the case of `CC(c1ccc(Cl)nc1)S(C)(=O)=NC#N` (centres unmarked) [Compound C.I.2], the “Average Control %” value ([1]; 0 + 10 ppm (compound II + compound I), compound I alone) is reported as 0%, the “Average Control %” value [1, 8] is reported as 0% and the “Average Control %” value [2, 9] is reported as 0%.

With `N#Cc1nn(-c2c(Cl)cc(C(F)(F)F)cc2Cl)c(N)c1[S+]([O-])C(F)(F)F` (centres unmarked) [Fipronil, fipronil] the “Average Control %” value [2, 6] was 25%.

In the case of `CCOC(=O)OC1=C(c2cc(C)ccc2C)C(=O)N[C@]12CC[C@@H](OC)CC2` [Spirotetramat, spirotetramat], the “Average Control %” value [4, 7] is reported as 0% and the “Average Control %” value ([2]; 100 + 0 ppm (compound II + compound I), compound II alone) is reported as 50%.

`CN1COCN(Cc2cnc(Cl)s2)/C1=N\[N+](=O)[O-]` [Thiamethoxam, thiamethoxam] was tested, and the “Average Control %” value [4, 11] was 0%.

With `CNC(=O)c1cc(C#N)cc(C)c1NC(=O)c1cc(Br)nn1-c1ncccc1Cl` [Compound II.A^13.1] the “Average Control %” value [1, 10] was 0%.

With `CNC(=O)c1cc(Cl)cc(C)c1NC(=O)c1cc(Br)nn1-c1ncccc1Cl` [Rynaxypyr] the “Average Control %” value [4, 11] was 0%.
